Assay results published in patent US8952024B2, “Herbicidal pyrimidone derivatives” (E I du Pont de Nemours and Company, priority 2009, dated 2015).

How the values were obtained:
Assay type in all cases: in vivo
[1] = system: umbrella sedge (Cyperus difformis); experiment: Test B flooded paddy test; conditions: for Plant response rating, Flood, Sedge, Umbrella: 250 g ai/ha, flooded paddy test, visual rating on 0 to 100 scale (0 no effect, 100 complete control) after 13 to 15 days; for Plant response rating, Sedge, Umbrella: Flood (flooded paddy test), 13 to 15 days
Method in brief: (§1)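 Ratings are visual, 0–100 (100 = complete control), taken versus untreated controls 13 to 15 days after treatment in the greenhouse. Compound went straight into paddy water held 3 cm above soil, applied to 2-leaf-stage plants of four species.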

[2] = system: rice (Oryza sativa); experiment: Test B flooded paddy test; conditions: for Plant response rating, Flood, Rice: 250 g ai/ha, flooded paddy test, visual rating on 0 to 100 scale (0 no effect, 100 complete control) after 13 to 15 days; for Plant response rating, Rice: Flood (flooded paddy test), 13 to 15 days
Method in brief: as §1

[3] = system: giant foxtail (Setaria faberii); experiment: Test B pre-/postemergence plant response; conditions: for Foxtail, Giant plant response rating (0 to 100 scale): 0 is no effect, 13 to 15 days
Method in brief: (§2)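 Compound in solvent + surfactant applied pre-em (loam/sand) or post-em (plants 2–18 cm, peat medium); greenhouse hold 13–15 days; visual 0–100 control score.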

[4] = system: goosegrass (Eleusine indica); experiment: Test B pre-/postemergence plant response; conditions: for Goosegrass plant response rating (0 to 100 scale): 0 is no effect, 13 to 15 days
Method in brief: as §2

[5] = system: corn (Zea mays); experiment: Test B pre-/postemergence plant response; conditions: for Corn plant response rating (0 to 100 scale): 0 is no effect, 13 to 15 days
Method in brief: as §2

[6] = system: green foxtail (Setaria viridis); experiment: Test B pre-/postemergence plant response; conditions: for Foxtail, Green plant response rating (0 to 100 scale): 0 is no effect, 13 to 15 days
Method in brief: as §2

[7] = system: ragweed (common ragweed, Ambrosia elatior); experiment: Test B pre-/postemergence plant response; conditions: for Ragweed plant response rating (0 to 100 scale): 0 is no effect, 13 to 15 days
Method in brief: as §2

[8] = system: pigweed (Amaranthus retroflexus); experiment: Test B pre-/postemergence plant response; conditions: for Pigweed plant response rating (0 to 100 scale): 0 is no effect, 13 to 15 days
Method in brief: as §2

[9] = system: johnsongrass (Sorghum halepense); experiment: Test B pre-/postemergence plant response; conditions: for Johnsongrass plant response rating (0 to 100 scale): 0 is no effect, 13 to 15 days
Method in brief: as §2

[10] = system: Surinam grass (Brachiaria decumbens); experiment: Test B pre-/postemergence plant response; conditions: for Surinam Grass plant response rating (0 to 100 scale): 0 is no effect, 13 to 15 days
Method in brief: as §2

[11] = system: blackgrass (Alopecurus myosuroides); experiment: Test B pre-/postemergence plant response; conditions: for Blackgrass plant response rating (0 to 100 scale): 0 is no effect, 13 to 15 days
Method in brief: as §2

[12] = system: wild oat (Avena fatua); experiment: Test B pre-/postemergence plant response; conditions: for Oat, Wild plant response rating (0 to 100 scale): 0 is no effect, 13 to 15 days
Method in brief: as §2

[13] = system: lambsquarters (Chenopodium album); experiment: Test B pre-/postemergence plant response; conditions: for Lambsquarters plant response rating (0 to 100 scale): 0 is no effect, 13 to 15 days
Method in brief: as §2

[14] = 62 g ai/ha, scale of 0 to 100 where 0 is no effect and 100 is complete control
[15] = 125 g ai/ha, scale 0 to 100, 0 is no effect, 100 is complete control
[16] = Flood, 31 g ai/ha, scale 0 to 100 (0 no effect, 100 complete control)
[17] = 31 g ai/ha, postemergence, scale 0 to 100, 0 is no effect, 100 is complete control
[18] = 62 g ai/ha, postemergence, 100 is complete control
[19] = Postemergence, 125 g ai/ha, visual rating after 13 to 15 days, scale 0 (no effect) to 100 (complete control)
[20] = Postemergence, 250 g ai/ha, scale 0 to 100 (0 no effect, 100 complete control)
[21] = 250 g ai/ha, Preemergence, 0 to 100 scale
[22] = Preemergence, 31 g ai/ha, scale 0 to 100 (0 no effect, 100 complete control)
[23] = Preemergence, 62 g ai/ha, scale 0 to 100 (0 no effect, 100 complete control)
[24] = Preemergence, 125 g ai/ha, scale 0 to 100, 0 no effect, 100 complete control

O=C1CCCC(O)=C1C(=O)c1cnc(-c2ccccc2Br)n(-c2ccccc2)c1=O [Compound 71]
Plant response rating, Flood, Sedge, Umbrella [1]: 25 | Plant response rating, Sedge, Umbrella [1, 14]: 0 | Plant response rating, Sedge, Umbrella [1, 15]: 0 | Sedge, Umbrella plant response rating [1, 16]: 0 | Plant response rating, Flood, Rice [2]: 0 | Plant response rating, Rice [2, 14]: 0 | Plant response rating, Rice [2, 15]: 0 | Rice plant response rating [2, 16]: 0 | Plant response rating, Foxtail, Giant [3, 17]: 20 | Foxtail, Giant plant response rating (0 to 100 scale) [3, 18]: 75 | Plant response rating, Foxtail, Giant [3, 19]: 80 | Plant response rating, Foxtail, Giant [3, 20]: 95 | Plant response rating, Goosegrass [4, 17]: 75 | Goosegrass plant response rating (0 to 100 scale) [4, 18]: 75 | Plant response rating, Goosegrass [4, 19]: 90 | Plant response rating, Goosegrass [4, 20]: 90 | Plant response rating, Corn [5, 17]: 0 | Corn plant response rating (0 to 100 scale) [5, 18]: 0 | Plant response rating, Corn [5, 19]: 0 | Plant response rating, Corn [5, 20]: 15 | Plant response rating, Foxtail, Green [6, 17]: 60 | Foxtail, Green plant response rating (0 to 100 scale) [6, 18]: 60 | Plant response rating, Foxtail, Green [6, 19]: 70 | Plant response rating, Foxtail, Green [6, 20]: 98 | Plant response rating, Ragweed [7, 17]: 75 | Ragweed plant response rating (0 to 100 scale) [7, 18]: 80 | Plant response rating, Ragweed [7, 19]: 80 | Plant response rating, Ragweed [7, 20]: 95 | Plant response rating, Pigweed [8, 17]: 85 | Pigweed plant response rating (0 to 100 scale) [8, 18]: 85 | Plant response rating, Pigweed [8, 19]: 98 | Plant response rating, Pigweed [8, 20]: 100 | Plant response rating, Johnsongrass [9, 17]: 65 | Johnsongrass plant response rating (0 to 100 scale) [9, 18]: 75 | Plant response rating, Johnsongrass [9, 19]: 98 | Plant response rating, Johnsongrass [9, 20]: 100 | Plant response rating, Surinam Grass [10, 17]: 50 | Surinam Grass plant response rating (0 to 100 scale) [10, 18]: 55 | Plant response rating, Surinam Grass [10, 19]: 65 | Plant response rating, Surinam Grass [10, 20]: 85 | Plant response rating, Blackgrass [11, 17]: 0 | Blackgrass plant response rating (0 to 100 scale) [11, 18]: 0 | Plant response rating, Blackgrass [11, 19]: 0 | Plant response rating, Blackgrass [11, 20]: 5 | Plant response rating, Oat, Wild [12, 17]: 0 | Oat, Wild plant response rating (0 to 100 scale) [12, 18]: 0 | Plant response rating, Oat, Wild [12, 19]: 0 | Plant response rating, Oat, Wild [12, 20]: 5 | Plant response rating, Lambsquarters [13, 17]: 75 | Lambsquarters plant response rating (0 to 100 scale) [13, 18]: 85 | Plant response rating, Lambsquarters [13, 19]: 90 | Plant response rating, Lambsquarters [13, 20]: 98

CCCc1ncc(C(=O)C2=C(O)CCCC2=O)c(=O)n1-c1ccccc1C [Compound 73]
Plant response rating, Flood, Sedge, Umbrella [1]: 0 | Plant response rating, Sedge, Umbrella [1, 14]: 0 | Plant response rating, Flood, Rice [2]: 0 | Plant response rating, Rice [2, 14]: 0 | Plant response rating, Foxtail, Giant [3, 17]: 70 | Foxtail, Giant plant response rating (0 to 100 scale) [3, 18]: 75 | Plant response rating, Foxtail, Giant [3, 21]: 80 | Plant response rating, Foxtail, Giant [3, 19]: 80 | Plant response rating, Foxtail, Giant [3, 20]: 90 | Plant response rating, Foxtail, Giant [3, 22]: 0 | Plant response rating, Foxtail, Giant [3, 23]: 70 | Plant response rating, Foxtail, Giant [3, 24]: 75 | Plant response rating, Goosegrass [4, 17]: 65 | Goosegrass plant response rating (0 to 100 scale) [4, 18]: 75 | Plant response rating, Goosegrass [4, 21]: 100 | Plant response rating, Goosegrass [4, 19]: 75 | Plant response rating, Goosegrass [4, 20]: 80 | Plant response rating, Goosegrass [4, 22]: 85 | Plant response rating, Goosegrass [4, 23]: 98 | Plant response rating, Goosegrass [4, 24]: 100 | Plant response rating, Corn [5, 17]: 20 | Corn plant response rating (0 to 100 scale) [5, 18]: 80 | Plant response rating, Corn [5, 21]: 10 | Plant response rating, Corn [5, 19]: 80 | Plant response rating, Corn [5, 20]: 85 | Plant response rating, Corn [5, 22]: 0 | Plant response rating, Corn [5, 23]: 0 | Plant response rating, Corn [5, 24]: 0 | Plant response rating, Foxtail, Green [6, 17]: 70 | Foxtail, Green plant response rating (0 to 100 scale) [6, 18]: 90 | Plant response rating, Foxtail, Green [6, 21]: 80 | Plant response rating, Foxtail, Green [6, 19]: 90 | Plant response rating, Foxtail, Green [6, 20]: 95 | Plant response rating, Foxtail, Green [6, 22]: 0 | Plant response rating, Foxtail, Green [6, 23]: 30 | Plant response rating, Foxtail, Green [6, 24]: 30 | Plant response rating, Ragweed [7, 17]: 75 | Ragweed plant response rating (0 to 100 scale) [7, 18]: 80 | Plant response rating, Ragweed [7, 19]: 85 | Plant response rating, Ragweed [7, 20]: 85 | Plant response rating, Ragweed [7, 22]: 45 | Plant response rating, Ragweed [7, 23]: 60 | Plant response rating, Ragweed [7, 24]: 75 | Plant response rating, Pigweed [8, 17]: 80 | Pigweed plant response rating (0 to 100 scale) [8, 18]: 98 | Plant response rating, Pigweed [8, 19]: 100 | Plant response rating, Pigweed [8, 20]: 100 | Plant response rating, Pigweed [8, 22]: 95 | Plant response rating, Pigweed [8, 23]: 100 | Plant response rating, Pigweed [8, 24]: 100 | Plant response rating, Johnsongrass [9, 17]: 10 | Johnsongrass plant response rating (0 to 100 scale) [9, 18]: 65 | Plant response rating, Johnsongrass [9, 21]: 98 | Plant response rating, Johnsongrass [9, 19]: 70 | Plant response rating, Johnsongrass [9, 20]: 75 | Plant response rating, Johnsongrass [9, 22]: 0 | Plant response rating, Johnsongrass [9, 23]: 0 | Plant response rating, Johnsongrass [9, 24]: 98 | Plant response rating, Surinam Grass [10, 17]: 80 | Surinam Grass plant response rating (0 to 100 scale) [10, 18]: 85 | Plant response rating, Surinam Grass [10, 19]: 85 | Plant response rating, Surinam Grass [10, 20]: 85 | Plant response rating, Surinam Grass [10, 22]: 85 | Plant response rating, Surinam Grass [10, 23]: 100 | Plant response rating, Surinam Grass [10, 24]: 100 | Plant response rating, Blackgrass [11, 17]: 0 | Blackgrass plant response rating (0 to 100 scale) [11, 18]: 10 | Plant response rating, Blackgrass [11, 21]: 10 | Plant response rating, Blackgrass [11, 19]: 10 | Plant response rating, Blackgrass [11, 20]: 30 | Plant response rating, Blackgrass [11, 22]: 0 | Plant response rating, Blackgrass [11, 23]: 0 | Plant response rating, Blackgrass [11, 24]: 0 | Plant response rating, Oat, Wild [12, 17]: 55 | Oat, Wild plant response rating (0 to 100 scale) [12, 18]: 80 | Plant response rating, Oat, Wild [12, 19]: 80 | Plant response rating, Oat, Wild [12, 20]: 95 | Plant response rating, Oat, Wild [12, 22]: 0 | Plant response rating, Oat, Wild [12, 23]: 0 | Plant response rating, Oat, Wild [12, 24]: 0 | Plant response rating, Lambsquarters [13, 17]: 85 | Lambsquarters plant response rating (0 to 100 scale) [13, 18]: 98 | Plant response rating, Lambsquarters [13, 21]: 100 | Plant response rating, Lambsquarters [13, 19]: 100 | Plant response rating, Lambsquarters [13, 20]: 100 | Plant response rating, Lambsquarters [13, 22]: 95 | Plant response rating, Lambsquarters [13, 23]: 98 | Plant response rating, Lambsquarters [13, 24]: 100
